{"source": "patent US4661297A", "about": "“Basic ethers of 7-oxo-7H-benzo(c) fluorene and a process for their production” (SPOFA, spojene podniky pro zdravotnickou vyrobu, priority 1980, dated 1987)", "system": "DNA, RNA and protein biosynthesis", "assay": "Effect on DNA, RNA and protein biosynthesis (substrate incorporation)", "type": "cell-based", "excerpt": "Thus, by way of exemplification, the IC^50 values (inhibitory concentration which lowered the initial rate of ^14 C incorporation to 50% of control) are shown in Table VI, below (Yoshida's Tumor, (U-^14 C) amino acid mixture)\nThe foregoing data clearly indicate that the compounds of the invention are potent inhibitors of DNA, RNA and protein biosynthesis. This is of significance because the suppression of tumor cells in a host is attained by inhibition of the biosynthesis of DNA, RNA and proteins.", "note": "pIC50: −log10 of the molar value. Numbered stars: 1 amine (or outer) side, 2 acyl side, 3 side chain; on linkers, the order of the positions; unused ones are H or OH. Bridge positions count the residues as written; N and C are the ends. Square brackets hold non-standard residues; d marks the D form. Peptide text beside a SMILES is read from it. I, II: the chains in the order shown. Actinocin(9to1) = Cc1c2oc3c(C)ccc(C(=O)[*:1])c3nc-2c(C(=O)[*:2])c(N)c1=O; NMeV = CN[C@H](C(=O)O)C(C)C; Sar = CNCC(=O)O", "data": [{"smiles": "Cc1c2oc3c(C)ccc(C(=O)N[C@@H]4C(=O)N[C@H](C(C)C)C(=O)N5CCC[C@H]5C(=O)N(C)CC(=O)N(C)[C@@H](C(C)C)C(=O)O[C@@H]4C)c3nc-2c(C(=O)N[C@@H]2C(=O)N[C@H](C(C)C)C(=O)N3CCC[C@H]3C(=O)N(C)CC(=O)N(C)[C@@H](C(C)C)C(=O)O[C@@H]2C)c(N)c1=O", "note": "[Actinomycin D] (I: T[dV]P[Sar][NMeV] / II: T[dV]P[Sar][NMeV]; ester I:1-I:C, II:1-II:C; linker I:N-II:N via Actinocin(9to1))", "values": [{"measurement": "IC50", "setting": "substrate (6-3H)uridine", "value": 1.7, "unit": "mg/L"}]}, {"smiles": "O=NN(CCCl)C(=O)NC1CCCCC1", "note": "[CCNU]", "values": [{"measurement": "pIC50", "setting": "substrate L-(U-14C)amino-acid mixture", "value": 4.35}]}, {"smiles": "Nc1ccn([C@@H]2O[C@H](CO)[C@@H](O)[C@@H]2O)c(=O)n1", "note": "[Cytosine arabinoside]", "values": [{"measurement": "pIC50", "setting": "substrate (thymine-U-14C)-thymidine", "value": 5.70}, {"measurement": "pIC50", "setting": "substrate L-(U-14)amino-acid", "value": 3.37}]}]}
